Literature values, collected in patent publication US20040176344A1, “METHOD TO TREAT PATIENTS WITH AMYOTROPHIC LATERAL SCLEROSIS AND THE LIKE” (priority 2004, published 2004).

How the values were obtained:
[1] = system: mouse of ALS; conditions: mouse model of ALS; J Neurochem 2003
[2] = acute intermittent porphyria; Khanderia 1986

| Structure (SMILES) | effect on disease progression [1] | adverse effect that precludes prophylactic use [2] |
| --- | --- | --- |
| Cl.O=C([O-])c1ccc(-c2c3nc(c(-c4ccc(C(=O)O)cc4)c4nc(c(-c5ccc(C(=O)O)cc5)c5ccc([nH]5)c(-c5ccc(C(=O)[O-])cc5)c5ccc2[n-]5)C=C4)C=C3)cc1.[Fe+3] [FeTCPP] | helpful in slowing disease progression |  |
| C=CC1=C(C)c2cc3[n-]c(cc4[n-]c(cc5nc(cc1n2)C(C)=C5C=C)c(C)c4CCC(=O)O)c(CCC(=O)O)c3C.O.[Fe+2] [hematin] |  | causes circulatory collapse |
